Measurements from ChEMBL document CHEMBL1201862, “PubChem BioAssay data set” (2004).
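Interpolation was linear, between the two tested concentrations surrounding the appropriate level; five concentrations were tested over 48 hours in 96-well plates. GI50: concentration for 50% inhibition of growth.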 The source made the active and inactive calls. No stated cut-off is given here; in the data, active = GI50 up to about 1.1 µM and inactive = higher.

Tests used:
Experiment in all cases: inhibition of tumour cell growth, NCI panel, 48 h
[1] = system: NCI/ADR-RES
[2] = system: NCI-H460
[3] = system: MCF7
[4] = system: SK-OV-3
[5] = system: OVCAR-3
[6] = system: MDA-MB-231
[7] = system: COLO 205
[8] = system: HOP-92
[9] = system: RPMI-8226
[10] = system: Malme-3M
[11] = system: HT-29
[12] = system: DU-145
[13] = system: SF-295
[14] = system: ACHN
[15] = system: BT-549
[16] = system: UACC-257
[17] = system: TK-10
[18] = system: HCC 2998
[19] = system: SF-268
[20] = system: A549
[21] = system: MDA-MB-435
[22] = system: RXF 393
[23] = system: LOX IMVI
[24] = system: PC-3
[25] = system: SK-MEL-5
[26] = system: NCI-H226
[27] = system: OVCAR-5
[28] = system: EKVX
[29] = system: 786-0
[30] = system: SNB-19
[31] = system: NCI-H23
[32] = system: KM12
[33] = system: OVCAR-8
[34] = system: HCT-15
[35] = system: M14
[36] = system: HCT-116
[37] = system: UACC-62
[38] = system: A498
[39] = system: SNB-75
[40] = system: SF-539
[41] = system: SK-MEL-28
[42] = system: T47D
[43] = system: NCI-H522
[44] = system: SR
[45] = system: OVCAR-4
[46] = system: U-251
[47] = system: CAKI-1
[48] = system: SN12C
[49] = system: SK-MEL-2
[50] = system: HOP-62
[51] = system: MDA-N
[52] = system: IGROV-1
[53] = system: Hs-578T
[54] = system: SW-620
[55] = system: UO-31
[56] = system: K562
[57] = system: MOLT-4
[58] = system: CCRF-CEM

## O=C(O)c1ccccc1-c1ccccc1C(=O)Nc1ccc2c(c1)Cc1ccccc1-2
[1]
  GI50: 45 µM (inactive)
[2]
  GI50: 19.2 µM (inactive)
[3]
  GI50: 28.1 µM (inactive)
[4]
  GI50: 59.4 µM (inactive)
[5]
  GI50: 25.3 µM (inactive)
[6]
  GI50: 60.5 µM (inactive)
[7]
  GI50: 17.2 µM (inactive)
[8]
  GI50: 46.8 µM (inactive)
[9]
  GI50: 23.4 µM (inactive)
[10]
  GI50: 42.5 µM (inactive)
[11]
  GI50: 25.5 µM (inactive)
[12]
  GI50: 38.8 µM (inactive)
[13]
  GI50: 39.1 µM (inactive)
[14]
  GI50: 30.3 µM (inactive)
[15]
  GI50: 29.9 µM (inactive)
[16]
  GI50: 28.3 µM (inactive)
[17]
  GI50: 45.1 µM (inactive)
[18]
  GI50: 17.8 µM (inactive)
[19]
  GI50: 43.1 µM (inactive)
[20]
  GI50: 29.2 µM (inactive)
[21]
  GI50: 41.9 µM (inactive)
[22]
  GI50: 46.7 µM (inactive)
[23]
  GI50: 22.5 µM (inactive)
[24]
  GI50: 41.1 µM (inactive)
[25]
  GI50: 15.5 µM (inactive)
[26]
  GI50: 67.6 µM (inactive)
[27]
  GI50: 21.9 µM (inactive)
[28]
  GI50: 22.1 µM (inactive)
[29]
  GI50: 34.7 µM (inactive)
[30]
  GI50: 36.1 µM (inactive)
[31]
  GI50: 18 µM (inactive)
[32]
  GI50: 32.4 µM (inactive)
[33]
  GI50: 43.6 µM (inactive)
[34]
  GI50: 20.4 µM
[35]
  GI50: 21.6 µM (inactive)
[36]
  GI50: 18 µM (inactive)
[37]
  GI50: 16.7 µM (inactive)
[38]
  GI50: 19.4 µM (inactive)
[39]
  GI50: 68.4 µM (inactive)
[40]
  GI50: 21.9 µM (inactive)
[41]
  GI50: 40.8 µM (inactive)
[42]
  GI50: 26.3 µM (inactive)
[43]
  GI50: 21.3 µM (inactive)
[44]
  GI50: 28.4 µM (inactive)
[45]
  GI50: 60.1 µM (inactive)
[46]
  GI50: 28.6 µM (inactive)
[47]
  GI50: 51.9 µM (inactive)
[48]
  GI50: 29.3 µM (inactive)
[49]
  GI50: 22.6 µM (inactive)
[50]
  GI50: 58.6 µM (inactive)
[51]
  GI50: 27.4 µM (inactive)
[52]
  GI50: 49.3 µM (inactive)
[53]
  GI50: 48.5 µM (inactive)
[54]
  GI50: 31.8 µM (inactive)
[55]
  GI50: 30 µM (inactive)

## Oc1nc2c(c(-c3cccc(Cl)c3)n1)COC/C2=C\c1cccc(Cl)c1
[1]
  GI50: > 100 µM (inactive)
[2]
  GI50: > 100 µM (inactive)
[3]
  GI50: > 100 µM (inactive)
[4]
  GI50: > 100 µM (inactive)
[5]
  GI50: > 100 µM (inactive)
[6]
  GI50: > 100 µM (inactive)
[7]
  GI50: > 100 µM (inactive)
[8]
  GI50: > 100 µM (inactive)
[9]
  GI50: 69.7 µM (inactive)
[12]
  GI50: > 100 µM (inactive)
[13]
  GI50: > 100 µM (inactive)
[56]
  GI50: > 100 µM (inactive)
[14]
  GI50: > 100 µM (inactive)
[15]
  GI50: > 100 µM (inactive)
[16]
  GI50: > 100 µM (inactive)
[17]
  GI50: > 100 µM (inactive)
[18]
  GI50: > 100 µM (inactive)
[19]
  GI50: > 100 µM (inactive)
[21]
  GI50: > 100 µM (inactive)
[22]
  GI50: > 100 µM (inactive)
[23]
  GI50: > 100 µM (inactive)
[24]
  GI50: > 100 µM (inactive)
[25]
  GI50: > 100 µM (inactive)
[26]
  GI50: > 100 µM (inactive)
[27]
  GI50: > 100 µM (inactive)
[28]
  GI50: > 100 µM (inactive)
[29]
  GI50: > 100 µM (inactive)
[57]
  GI50: > 100 µM (inactive)
[30]
  GI50: > 100 µM (inactive)
[58]
  GI50: 64.4 µM (inactive)
[31]
  GI50: > 100 µM (inactive)
[32]
  GI50: > 100 µM (inactive)
[33]
  GI50: > 100 µM (inactive)
[34]
  GI50: > 100 µM
[35]
  GI50: > 100 µM (inactive)
[36]
  GI50: > 100 µM (inactive)
[37]
  GI50: > 100 µM (inactive)
[38]
  GI50: > 100 µM (inactive)
[39]
  GI50: > 100 µM (inactive)
[40]
  GI50: > 100 µM (inactive)
[42]
  GI50: > 100 µM (inactive)
[43]
  GI50: > 100 µM (inactive)
[44]
  GI50: > 100 µM (inactive)
[45]
  GI50: > 100 µM (inactive)
[46]
  GI50: > 100 µM (inactive)
[47]
  GI50: > 100 µM (inactive)
[48]
  GI50: > 100 µM (inactive)
[49]
  GI50: > 100 µM (inactive)
[50]
  GI50: > 100 µM (inactive)
[51]
  GI50: > 100 µM (inactive)
[52]
  GI50: > 100 µM (inactive)
[53]
  GI50: > 100 µM (inactive)
[54]
  GI50: > 100 µM (inactive)
[55]
  GI50: > 100 µM (inactive)
